Measured values reported in US20260159519A1, “IMIDAZOPYRIDAZINE SUBSTITUTED BENZENE RING DERIVATIVE, PREPARATION METHOD, PHARMACEUTICAL COMPOSITION AND USE” (SHANGHAI SIMR BIOTECHNOLOGY CO., LTD., priority 2022, published 2026).

Test system: Chinese hamster ovary cells (CHO-WBL cells)
Assay: In vitro micronucleus assay
Format: cell-based
Conditions: 3-hour treatment with S9, 3-hour and 24-hour treatment without S9; overall judgment
Excerpt: The experimental design is based on the experimental purpose and follows the following experimental design guidelines: • (1) OECD Guidelines for the Testing of Chemicals 487, In Vitro Mammalian Cell Micronucleus Test, revised in 2016; • (2) ICH S2 (R1): Guideline on Genotoxicity Testing and Data Interpretation for Pharmaceuticals Intended for Human Use, validated in November 2011.
Experimental system and selection rationale: Chinese hamster ovary cells (CHO-WBL cells) were used as an experimental system in this experiment. The cell line has a karyotype containing 21 chromosomes and a growth cycle of 12 to 13 hours. CHO-WBL cells were originally derived from Dr. S. Wolff at the University of California in San Francisco, USA, then cloned in the laboratory of Dr. A. Bloom at Columbia University in New York, and cloned again by Dr. S. Galloway at Litton Bionetics Laboratory in Maryland. The cell stock solution was stored in liquid nitrogen. The karyotype of each batch of cell stock solution was identified, and tests confirmed that it was free from mycoplasma contamination. The number of passages after cell cloning will not exceed 15. Chinese hamster ovary cells were chosen because the cell line is recommended for use in OECD Guidelines for the Testing of Chemicals 487 and has been proven to be sensitive to a variety of clastogens/aneugens (Marilyn J. et al., 2006).
Medium and cell growth conditions: Chinese hamster ovary cells were cultured in McCoy's 5A complete medium (McCoy's 5A complete medium supplemented with 10 vt % fetal bovine serum, 2 mM GlutaMAX™ medium, 100 units/mL penicillin, and 100 μg/mL streptomycin), and grown in a standard environment (a high-humidity incubator with a temperature of 37° C. and a CO2 concentration of 5%). The day before administration, CHO-WBL cells in exponential growth phase were inoculated onto an eight-well cell culture slide at a density of 8×10^3 cells/400 μL McCoy's 5A complete medium/well.
Metabolic activation system: The in vitro metabolic activation system (Maron and Ames, 1983) contains a rat liver microsomal homogenate induced by β-naphthoflavone and phenobarbital (referred to as S9) and an NADPH-generating system (i.e., NADP disodium and isocitric acid trisodium). S9 was purchased from CHI Scientific, Inc. and stored in a −75° C. refrigerator prior to use. Preparation method for S9 homogenate: Male Sprague Dawley rats were intraperitoneally injected with a single dose of p-naphthoflavone and phenobarbital, followed by material preparation.
Preparation of S9 metabolic activation system: NADP disodium salt and isocitric acid trisodium salt were first dissolved in serum-free medium to prepare a core solution, which was then filtered through a 0.22 µm filter to sterilize. Immediately before use, the S9 homogenate was thawed, and the components of the S9 metabolic activation system were mixed in the proportions shown in Table 2 below.
Dose exploration experiment: In the dose exploration experiment, 8 administration concentrations were established in each administration treatment series. For each concentration of the test substance, 1 well of cells was set up. According to the ICH S2 (R1) guidelines, when not limited by the solubility of the test substance in the solvent/medium or the cytotoxicity of the test substance, the recommended maximum concentration is 1 mM or 0.5 mg/mL, whichever is lower. However, when limited by solubility, the test maximum concentration is the minimum concentration at which a small amount of precipitate is visible in the medium under the microscope. To ensure that the upper limit of solubility in the medium can be reached, up to 4 concentrations with visible precipitate can be tested.

SMILES: CCn1cnc2c(-c3ccc(F)c(-c4cc5c(cc4OC)N(C)C(=O)CO5)c3)cnnc21 [Example 42, 7-(5-(7-Ethyl-7H-imidazo[4,5-c]pyridazin-4-yl)-2-fluorophenyl)-6-methoxy-4-methyl-2H-benzo[b][1,4]oxazin-3(4H)-one]
- Results of in vitro micronucleus assay: Negative

SMILES: CCN1C(=O)COc2cc(-c3cc(-c4cnnc5c4ncn5CC)ccc3F)c(OC)cc21 [Example 31, 4-Ethyl-7-(5-(7-ethyl-7H-imidazo[4,5-c]pyridazin-4-yl)-2-fluorophenyl)-6-methoxy-2H-benzo[b][1,4]oxazin-3(4H)-one]
- Results of in vitro micronucleus assay: Negative

SMILES: COc1cc2c(cc1-c1cc(-c3cnnc4c3ncn4C(C)C)ccc1F)OCC(=O)N2C [Example 36, 7-(2-Fluoro-5-(7-isopropyl-7H-imidazo[4,5-c]pyridazin-4-yl)phenyl)-6-methoxy-4-methyl-2H-benzo[b][1,4]oxazin-3(4H)-one]
- Results of in vitro micronucleus assay: Negative

SMILES: CCn1cnc2c(-c3ccc(F)c(-c4cc5oc(=O)n(C)c5cc4OC)c3)cnnc21 [Example 87, 6-(5-(7-Ethyl-7H-imidazo[4,5-c]pyridazin-4-yl)-2-fluorophenyl)-5-methoxy-3-methylbenzo[d]oxazol-2(3H)-one]
- Results of in vitro micronucleus assay: Negative

SMILES: CCn1cnc2c(-c3ccc(F)c(-c4cc5c(cc4OC)N(C)C(=O)C5)c3)cnnc21 [Example 161, 5-(5-(7-Ethyl-7H-imidazo[4,5-c]pyridazin-4-yl)-2-fluorophenyl)-6-methoxy-1-methyldihydro-2-one]
- Results of in vitro micronucleus assay: Negative
